Columns and labels:
[1] = biological target: T1, DENV4 NS2B-NS3pro (Dengue virus type 4, UniProt Q2YHF0, DELINS1442-1474GGGGSGGGG); assay: In vitro inhibition assay of recombinant NS2B-NS3pro with fluorogenic AMC peptide substrate; assay type: biochemical, dengue virus type 4 (DENV4); settings: for Inhibition Activity: primary inhibition assay at a 100 μM concentration of inhibitors, Table S1; for Inhibition: inhibition activity at 100 μM, 1.65 µM AMC peptide substrate, Table 2
[2] = biological target: T1, DENV4 NS2B-NS3pro; assay: Inhibitor enzyme kinetics (Lineweaver-Burk and Dixon plots) against NS2B-NS3pro; assay type: biochemical, dengue virus type 4 (DENV4); settings: AMC peptide substrates
Procedure: Inhibitory kinetic experiments were performed at different constant inhibitor concentrations and different substrate concentrations. Lineweaver–Burk and Dixon plots were used to analyze the inhibition modes of these compounds. Ki values were calculated from the Dixon plots.
The type of inhibition was determined using Lineweaver–Burk plots, and Ki values were determined with a Dixon plot (1/v as a function of [I], inhibitor concentration) from different inhibitor concentrations.

T1 sequence (Q2YHF0 1475-1660, added parts left off, stated change not applied): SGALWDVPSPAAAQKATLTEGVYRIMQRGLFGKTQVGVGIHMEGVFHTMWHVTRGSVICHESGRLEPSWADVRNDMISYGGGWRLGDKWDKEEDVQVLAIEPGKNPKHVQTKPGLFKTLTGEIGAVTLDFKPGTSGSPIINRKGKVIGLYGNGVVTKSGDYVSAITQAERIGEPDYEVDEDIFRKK

In the case of “N-cycloheptyl-2,5-dimethyl-4-(4-(pyridin-2-yl)piperazin-1-yl)thieno[2,3-d]pyrimidine-6-carboxamide [Compound 28]”, the “Inhibition Activity” value [1] is reported as 32.84%.

In the case of `O=C(NCCN1CCCCC1)c1cccc(Nc2ccc(-c3cccc(F)c3)nn2)c1` [Compound 29, 3-((6-(3-fluorophenyl)pyridazin-3-yl)amino)-N-(2-(piperidin-1-yl)ethyl)benzamide], the Inhibition [1] is reported as 66.6% and the “Inhibition Activity” value [1] is reported as 66.55%.

With “3,3'-(ethane-1,2-diyl)bis(2-(((7-chloro-4-oxo-4H-pyrido[1,2-a]pyrimidin-2-yl)methyl)thio)quinazolin-4(3H)-one) [Compound 35]” the “Inhibition Activity” value [1] was 48.66%.

For “N-(3-(4-cyclohexylpiperazin-1-yl)propyl)-1-(5-(2-oxopyrrolidin-1-yl)-1,3,4-thiadiazol-2-yl)piperidine-3-carboxamide [Compound 23]”, the “Inhibition Activity” value [1] was 17.71%.

For “N-(3-(piperidin-1-yl)propyl)-1-(6-(p-tolyl)imidazo[2,1-b][1,3,4]thiadiazol-2-yl)piperidine-3-carboxamide [Compound 8]”, the “Inhibition Activity” value [1] was 33.48%.

With “5-(5,6-dibromo-1,3-dioxohexahydro-1H-4,7-methanoisoindol-2(3H)-yl)-2-morpholinobenzoic acid [Compound 13]” the “Inhibition Activity” value [1] was 5.55%.

In the case of “1-(5-(4-(4-(5-chloro-2-methylphenyl)piperazine-1-carbonyl)piperidin-1-yl)-1,3,4-thiadiazol-2-yl)pyrrolidin-2-one [Compound 18]”, the “Inhibition Activity” value [1] is reported as 0.15%.

In the case of `Cc1nc2sc(C(=O)c3ccc(-c4ccc(C(=O)c5sc6nc(C)c(C)c(C)c6c5N)cc4)cc3)c(N)c2c(C)c1C` [Compound 10, [1,1'-biphenyl]-4,4'-diylbis((3-amino-4,5,6-trimethylthieno[2,3-b]pyridin-2-yl)methanone)], the “Inhibition Activity” value [1] is reported as 7.59%.

For “4-((4aR,5R,5aR,8aR,9S)-10-(4-(tert-butyl)phenyl)-2,6,8-trioxo-2,3,4a,5,5a,6,8a,9,9a,10-decahydro-5,9-methanothiazolo[5',4':5,6]thiopyrano[2,3-f]isoindol-7(8H)-yl)butanoic acid [Compound 11]”, the “Inhibition Activity” value [1] was 12.46%.

With “1-(4-(2,5-dimethylphenyl)piperazin-1-yl)-4-(10-methylbis([1,2,4]triazolo)[4,3-a:1',5'-c]quinazolin-3-yl)butan-1-one [Compound 3]” the “Inhibition Activity” value [1] was 2.61%.

“4-(2,6-bis(3-hydroxyphenyl)-1,3,5,7-tetraoxo-1,2,3,5,6,7-hexahydropyrrolo[3,4-f]isoindole-4-carbonyl)benzoic acid [Compound 1]” was tested, and the “Inhibition Activity” value [1] was 15.05%.

For `Cc1cccc(C)c1-n1c(SCc2cc(=O)n3cc(Cl)ccc3n2)nc2c(sc(=S)n2-c2c(C)cccc2C)c1=O` [Compound 22, 5-[[(7-chloro-4-oxo-4H-pyrido[1,2-a]pyrimidin-2-yl)methyl)sulfanyl)-3,6-bis(2,6-dimethylphenyl)-2-thioxo-2,3-dihydro[1,3]thiazolo[4,5-d]pyrimidin-7(6H)-one], the Inhibition mode [2] was “competitive inhibitors” and the “Inhibition Activity” value [1] was 91.65%.

“2-((4aR,5R,5aR,8aR,9S)-2,6,8-trioxo-3,10-diphenyl-2,3,4a,5,5a,6,8a,9,9a,10-decahydro-5,9-methanothiazolo[5',4':5,6]thiopyrano[2,3-f]isoindol-7(8H)-yl)acetic acid [Compound 34]” was tested, and the “Inhibition Activity” value [1] was 39.67%.

For “(5,7-dimethyl-6-(3-methylbenzyl)pyrazolo[1,5-a]pyrimidin-3-yl)(4-(2,5-dimethylphenyl)piperazin-1-yl)methanone [Compound 6]”, the “Inhibition Activity” value [1] was 8.61%.

For `O=C1c2ccc(-n3c(=O)c4cc5c(=O)n(-c6ccc7c(c6)C(=O)N(c6ccccc6)C7=O)c(=O)c5cc4c3=O)cc2C(=O)N1c1ccccc1` [Compound 4, 2,6-bis(1,3-dioxo-2-phenylisoindolin-5-yl)pyrrolo[3,4-f]isoindole-1,3,5,7(2H,6H)-tetraone], the “Inhibition Activity” value [1] was 4.64%.

With `O=S(=O)(c1ccc(-c2csc(N3N=C(c4cccs4)CC3c3ccc(F)cc3)n2)cc1)N1CCCCC1` (centres unmarked) [Compound 12, 2-(5-(4-fluorophenyl)-3-(thiophen-2-yl)-4,5-dihydro-1H-pyrazol-1-yl)-4-(4-(piperidin-1-ylsulfonyl)phenyl)thiazole] the Inhibition [1] was 85.2% and the “Inhibition Activity” value [1] was 85.17%.

For “N-(3-(4-ethylpiperazin-1-yl)propyl)-1-(5-(2-oxopyrrolidin-1-yl)-1,3,4-thiadiazol-2-yl)piperidine-3-carboxamide [Compound 30]”, the “Inhibition Activity” value [1] was 1.3%.

In the case of `Cc1nnc2c(Nc3cccc(C(=O)O)c3)nc3ccc(C(=O)c4ccccc4)cc3n12` [Compound 5, 3-((8-benzoyl-1-methyl-[1,2,4]triazolo[4,3-a]quinoxalin-4-yl)amino)benzoic acid], the Inhibition [1] is reported as 58.8% and the “Inhibition Activity” value [1] is reported as 58.83%.

For `O=C(Nc1ccc(Br)cc1C(=O)c1ccccc1)c1cccc(Nc2nc(-c3ccccc3)c3cc(Br)ccc3n2)c1` [Compound 7, N-(2-benzoyl-4-bromophenyl)-3-((6-bromo-4-phenylquinazolin-2-yl)amino)benzamide], the “Inhibition Activity” value [1] was 21.31%.

With “N2,N2-dimethyl-6-(((4-methyl-5-((2-methyl-5-nitro-1H-imidazol-1-yl)methyl)-4H-1,2,4-triazol-3-yl)thio)methyl)-1,3,5-triazine-2,4-diamine [Compound 31]” the “Inhibition Activity” value [1] was 6.49%.

For “3-(((1-methyl-1H-tetrazol-5-yl)thio)methyl)-7-(2-(5-methyl-4-nitro-1H-pyrazol-1-yl)acetamido)-8-oxo-5-thia-1-azabicyclo[4.2.0]oct-2-ene-2-carboxylic acid [Compound 17]”, the “Inhibition Activity” value [1] was 23.01%.

“N-(1,5-dimethyl-3-oxo-2-phenyl-2,3-dihydro-1H-pyrazol-4-yl)-2-((5,9-dimethyl-[1,2,4]triazolo[4,3-a]quinolin-1-yl)thio)acetamide [Compound 26]” was tested, and the “Inhibition Activity” value [1] was 28.11%.

For `C(=C\CSc1nnc(-c2ccccc2)c(-c2ccccc2)n1)/CSc1nnc(-c2ccccc2)c(-c2ccccc2)n1` [Compound 33, (E)-1,4-bis((5,6-diphenyl-1,2,4-triazin-3-yl)thio)but-2-ene], the “Inhibition Activity” value [1] was 40.52%.

For “N-(1-benzyl-1H-benzo[d]imidazol-2-yl)-5-((3-nitro-1H-1,2,4-triazol-1-yl)methyl)furan-2-carboxamide [Compound 32]”, the “Inhibition Activity” value [1] was 45.55%.

In the case of `COC(=O)CSc1ncn(-c2nc(N3CCCCC3)nc(N3CCCCC3)n2)n1` [Compound 19, methyl 2-((1-(4,6-di(piperidin-1-yl)-1,3,5-triazin-2-yl)-1H-1,2,4-triazol-3-yl)thio)acetate], the “Inhibition Activity” value [1] is reported as 10.28%.

With `CCN(CC)CCn1c(NC(=O)c2ccc(Cn3nc([N+](=O)[O-])c(Cl)c3C)o2)nc2ccccc21` [Compound 2, 5-((4-chloro-5-methyl-3-nitro-1H-pyrazol-1-yl)methyl)-N-(1-(2-(diethylamino)ethyl)-1H-benzo[d]imidazol-2-yl)furan-2-carboxamide] the Inhibition mode [2] was “competitive inhibitors” and the “Inhibition Activity” value [1] was 95.23%.

For “2-(3-fluorophenyl)-7-((2-(3-fluorophenyl)-4-oxo-4H-benzo[d][1,3]oxazin-6-yl)methyl)-4H-benzo[d][1,3]oxazin-4-one [Compound 36]”, the “Inhibition Activity” value [1] was 34.33%.

In the case of `Cc1cccc(-c2nc3nc(C)cc(Nc4ccc(CC(=O)O)cc4)n3n2)c1` [Compound 15, 2-(4-((5-methyl-2-(m-tolyl)-[1,2,4]triazolo[1,5-a]pyrimidin-7-yl)amino)phenyl)acetic acid], the “Inhibition Activity” value [1] is reported as 17.36%.

In the case of `Cc1nn(-c2ccccc2)c2c1nc(CCC(=O)NCCN1CCN(C)CC1)c(=O)n2C` [Compound 24, 3-(3,7-dimethyl-6-oxo-1-phenyl-6,7-dihydro-1H-pyrazolo[3,4-b]pyrazin-5-yl)-N-(2-(4-methylpiperazin-1-yl)ethyl)propanamide], the “Inhibition Activity” value [1] is reported as 29.46%.

For “2-(1-isobutyl-5,5-dimethyl-3-(naphthalen-1-yl)-2-oxoimidazolidin-4-yl)-4-(naphthalen-1-yl)-1,2,4-oxadiazolidine-3,5-dione [Compound 16]”, the “Inhibition Activity” value [1] was 33.28%.

In the case of “N-(4-((2-(benzo[d][1,3]dioxol-5-yl)-1,3-dioxoisoindolin-5-yl)oxy)phenyl)-1-oxo-4-phenyl-1H-isochromene-3-carboxamide [Compound 20]”, the “Inhibition Activity” value [1] is reported as 28.87%.

In the case of `O=C1c2ccccc2C(=O)N1c1cccc(-c2csc(N3N=C(c4ccccc4)CC3c3ccccc3)n2)c1` (centres unmarked) [Compound 21, 2-(3-(2-(3,5-diphenyl-4,5-dihydro-1H-pyrazol-1-yl)thiazol-4-yl)phenyl)isoindoline-1,3-dione], the “Inhibition Activity” value [1] is reported as 21.27%.

In the case of `COc1cccc(-n2nc(C(=O)NC3CCCCCC3)c3ccccc3c2=O)c1` [Compound 9, N-cycloheptyl-3-(3-methoxyphenyl)-4-oxo-3,4-dihydrophthalazine-1-carboxamide], the “Inhibition Activity” value [1] is reported as 23.33%.

`O=C(O)CCCNc1cc(N2CCCCCC2)c2noc3c2c1C(=O)c1ccccc1-3` [Compound 27, 4-((3-(azepan-1-yl)-6-oxo-6H-anthra[1,9-cd]isoxazol-5-yl)amino)butanoic acid] was tested, and the Inhibition [1] was 82.5% and the “Inhibition Activity” value [1] was 82.53%.

For `Nc1nonc1-c1nc2ccccc2n1Cc1ccc(Cn2c(-c3nonc3N)nc3ccccc32)cc1` [Compound 25, 4,4'-(1,1'-(1,4-phenylenebis(methylene))bis(1H-benzo[d]imidazole-2,1-diyl))bis(1,2,5-oxadiazol-3-amine)], the “Inhibition Activity” value [1] was 36.45%.

— publication PMC6269914, “In Vitro Evaluation of Novel Inhibitors against the NS2B-NS3 Protease of Dengue Fever Virus Type 4” (Molecules, 2013)
